Source: US20080176885A1, “Novel synergistic opioid-cannabinoid codrug for pain management” (University of Kentucky, priority 2006, published 2008)
“And” between values parts separate entries of the source, which are not always exact repeats. Equal values may be shown once.

Tested on: thermally-induced nociception in rats
Assay: Tail-flick test (thermally-induced nociception) in rats
Assay type: in vivo, rat (male Sprague-Dawley)
Conditions: i.p., rat, cut off 10 seconds
Protocol: The purpose of the study was to determine the analgesic effect of tetrahydrocannabinol (Δ-9 THC) alone, Morphine Alone and Δ-9 THC in combination with Morphine on thermal-induced pain was determined. […] The dose response curve for the tail flick test and the analgesic effects of various doses of Morphine alone, Δ-9 THC alone as well as various doses of Δ-9 THC combined with various doses of morphine was determined by comparing pre-injection baseline values to post-injection values.
The tail-flick test was performed according to the following procedure:
Male Sprague-Dawley rats all with an approximate age of 85 to 90 days were each weighed prior to being subjected to any tests, on the day of the experiment. Each rat was only used for one day of experiments, and given only one dose, or dose combination. • 1. Prior to tail-flick test, rats are habituated for three days to handling and the tail flick procedure, without heat exposure. • 2. On the day of the experiment, warm up the tail-flick apparatus (IITC Model 33, Life Science, Woodland Hills, Calif.) for at least 30 minutes. • 3. Adjust the intensity of the lamp so that baseline tail-flick latency for rats is equal to approximately 2.0 seconds. […] Place rat in a mitten and blacken tail with ink approximately 2 inches in length at 1 inch from the tip of the tail. • 6. Place the tail flatly in the groove of the tail-flick apparatus. • 7. Push start to begin heat exposure. The lamp will turn off automatically when the tail flicks from the heat source. • 8. For each rat, a baseline score is determined prior to injection. TFL (tail flick latency) is measured twice in an approximate 15 minute intervals and an average of the two times determines the baseline. • 9. Once the baseline value is determined, TFL is measured, following the injection of drugs, at times 15, 30, 60 and 120 minutes.
All solutions were made on the day of the experiment. Not all of the solutions described below were used in every experiment. The drug combinations vary for each experiment. Each particular combination for an experiment is reported in the corresponding table below.
Each animal is given an injection of morphine that is 1 ml/kg body weight, and an injection of THC or control that is varies by dose and the injection volume is calculated as set forth above.

[1] = Example 10, dose Z: 2 mg/kg morphine 30 minutes after vehicle

## CCCCCc1cc(O)c2c(c1)OC(C)(C)[C@@H]1CCC(C)=C[C@@H]21 [Δ-9 THC, delta-9-tetrahydrocannabinol]
Example 6, dose X: saline and 2 mg/kg Δ-9 THC, 15 min
  Tail Flick Latency (TFL, seconds) 15 min: 2.33 s and 1.77 s and 2.10 s
Example 8, dose X: saline and 2 mg/kg Δ-9 THC, 15 min
  Tail Flick Latency (TFL, seconds) 15 min: 2.57 s and 1.88 s and 3.65 s
Dose C: saline and 8 mg/kg Δ-9 THC
  Tail Flick Latency (TFL, seconds) 180 min: 10.0 s
Dose C: saline and 8 mg/kg Δ-9 THC, 240 min
  Tail Flick Latency (TFL, seconds) 240 min: 9.21 s and 8.98 s and 7.28 s
Dose E: saline and 1 mg/kg Δ-9 THC, 15 min
  Tail Flick Latency (TFL, seconds) 15 min: 2.12 s and 2.03 s
Dose E: saline and 1 mg/kg Δ-9 THC
  Tail Flick Latency (TFL, seconds) 30 min: 2.56 s and 2.15 s
Dose E: saline and 1 mg/kg Δ-9 THC, 60 min
  Tail Flick Latency (TFL, seconds) 60 min: 3.98 s and 5.07 s
Dose E: saline and 1 mg/kg Δ-9 THC, 120 min
  Tail Flick Latency (TFL, seconds) 120 min: 4.20 s and 3.09 s
Dose G: saline and 4 mg/kg Δ-9 THC
  Tail Flick Latency (TFL, seconds) 30 min: 5.07 s and 5.89 s and 5.10 s
Dose G: saline and 4 mg/kg Δ-9 THC, 60 min
  Tail Flick Latency (TFL, seconds) 60 min: 6.24 s and 8.76 s and 6.48 s

## CN1CC[C@]23c4c5ccc(O)c4O[C@H]2[C@@H](O)C=C[C@H]3[C@H]1C5 [Morphine]
Example 7, dose Z: vehicle and 2 mg/kg morphine, 15 min
  Tail Flick Latency (TFL, seconds) 15 min: 3.08 s and 3.12 s and 2.28 s
Example 7, dose Z: vehicle and 2 mg/kg morphine
  Tail Flick Latency (TFL, seconds) 30 min: 2.96 s and 2.83 s and 4.73 s
Example 7, dose Z: vehicle and 2 mg/kg morphine, 60 min
  Tail Flick Latency (TFL, seconds) 60 min: 2.22 s and 3.69 s and 3.85 s
Example 9, dose Z: 2 mg/kg Morphine and vehicle
  Tail Flick Latency (TFL, seconds) 30 min: 4.22 s and 4.99 s and 3.00 s
Example 9, dose Z: 2 mg/kg Morphine and vehicle, 60 min
  Tail Flick Latency (TFL, seconds) 60 min: 2.91 s and 5.25 s and 3.97 s
Example 9, dose Z: 2 mg/kg Morphine and vehicle, 120 min
  Tail Flick Latency (TFL, seconds) 120 min: 2.68 s and 4.83 s and 2.67 s
Example 10, dose Z: 2 mg/kg morphine 30 minutes after vehicle, 15 min
  Tail Flick Latency (TFL, seconds) 15 min: 2.41 s and 2.99 s and 3.89 s and 2.36 s and 2.97 s and 3.02 s
[1]
  Tail Flick Latency (TFL, seconds) 30 min: 2.90 s and 3.58 s and 4.86 s and 4.07 s and 4.39 s and 3.90 s
  Tail Flick Latency (TFL, seconds) 180 min: 2.15 s and 2.64 s and 2.59 s and 2.18 s and 2.56 s and 2.67 s
Example 10, dose Z: 2 mg/kg morphine 30 minutes after vehicle, 60 min
  Tail Flick Latency (TFL, seconds) 60 min: 3.26 s and 3.14 s and 3.96 s and 3.86 s and 3.99 s and 4.01 s
Example 10, dose Z: 2 mg/kg morphine 30 minutes after vehicle, 120 min
  Tail Flick Latency (TFL, seconds) 120 min: 2.68 s and 2.94 s and 3.18 s and 3.06 s and 3.23 s
Dose B: 3 mg/kg morphine and vehicle, 15 min post-injection
  Tail Flick Latency (TFL, seconds) 15 min: 2.38 s and 2.19 s and 2.74 s
Dose B: 3 mg/kg morphine and vehicle, 60 min post-injection
  Tail Flick Latency (TFL, seconds) 60 min: 5.36 s and 4.63 s and 4.80 s
Dose B: 3 mg/kg morphine and vehicle, 120 min post-injection
  Tail Flick Latency (TFL, seconds) 120 min: 4.02 s and 4.55 s and 3.99 s
